Data as given in PubChem BioAssay (NCI).
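The compound was tested at five concentrations on cells cultured in 96-well plates, with a 48-hour exposure period. TGI: total growth inhibition.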

How the values were obtained:
Experiment in all cases: NCI-60 cell line screen, 48 h
[1] = test system: 786-0 renal
[2] = test system: A549 NSCLC
[3] = test system: ACHN renal
[4] = test system: BT-549 breast
[5] = test system: CAKI-1 renal
[6] = test system: CCRF-CEM leukemia
[7] = test system: COLO 205 colon
[8] = test system: DU-145 prostate
[9] = test system: EKVX NSCLC
[10] = test system: HCC-2998 colon
[11] = test system: HCT-116 colon
[12] = test system: HCT-15 colon
[13] = test system: HL-60(TB) leukemia
[14] = test system: HOP-62 NSCLC
[15] = test system: HS 578T breast
[16] = test system: HT29 colon
[17] = test system: IGROV1 ovarian
[18] = test system: K-562 leukemia
[19] = test system: KM12 colon
[20] = test system: LOX IMVI melanoma
[21] = test system: M14 melanoma
[22] = test system: MALME-3M melanoma
[23] = test system: MCF7 breast
[24] = test system: MDA-MB-231 breast
[25] = test system: MDA-N
[26] = test system: MOLT-4 leukemia
[27] = test system: NCI-H226 lung
[28] = test system: NCI-H23 lung
[29] = test system: NCI-H460 lung
[30] = test system: NCI-H522 lung
[31] = test system: NCI/ADR-RES ovarian
[32] = test system: OVCAR-4 ovarian
[33] = test system: OVCAR-5 ovarian
[34] = test system: OVCAR-8 ovarian
[35] = test system: PC-3 prostate
[36] = test system: SF-268 CNS
[37] = test system: SF-295 CNS
[38] = test system: SF-539 CNS
[39] = test system: SK-MEL-2 melanoma
[40] = test system: SK-MEL-28 melanoma
[41] = test system: SK-MEL-5 melanoma
[42] = test system: SK-OV-3 ovarian
[43] = test system: SN12C renal
[44] = test system: SNB-19 CNS
[45] = test system: SNB-75 CNS
[46] = test system: SR leukemia
[47] = test system: SW-620 colon
[48] = test system: T-47D breast
[49] = test system: TK-10 renal
[50] = test system: U251 CNS
[51] = test system: UACC-257 melanoma
[52] = test system: UACC-62 melanoma
[53] = test system: UO-31 renal
[54] = test system: A498 renal
[55] = test system: HOP-92 NSCLC
[56] = test system: MDA-MB-435
[57] = test system: OVCAR-3 ovarian
[58] = test system: RPMI-8226 leukemia
[59] = test system: RXF 393 renal

`O=C1CCC2(CC1)Cc1ccccc1C2O` (stereo not drawn) was tested, and the TGI [1] was greater than 100 µM, the TGI [2] was greater than 100 µM and the TGI [3] was greater than 100 µM. It also gave a TGI [4] greater than 100 µM, a TGI [5] greater than 100 µM and a TGI [6] greater than 100 µM. For the same compound, the TGI [7] was greater than 100 µM, the TGI [8] was greater than 100 µM and the TGI [9] was greater than 100 µM. It also gave a TGI [10] greater than 100 µM, a TGI [11] greater than 100 µM and a TGI [12] greater than 100 µM. For the same compound, the TGI [13] was greater than 100 µM, the TGI [14] was greater than 100 µM and the TGI [15] was greater than 100 µM. It also gave a TGI [16] greater than 100 µM, a TGI [17] greater than 100 µM and a TGI [18] greater than 100 µM. For the same compound, the TGI [19] was greater than 100 µM, the TGI [20] was greater than 100 µM and the TGI [21] was greater than 100 µM. It also gave a TGI [22] greater than 100 µM, a TGI [23] greater than 100 µM and a TGI [24] greater than 100 µM. The TGI [25] was greater than 100 µM, the TGI [26] was greater than 100 µM and the TGI [27] was greater than 100 µM. It also gave a TGI [28] greater than 100 µM, a TGI [29] greater than 100 µM and a TGI [30] greater than 100 µM. The TGI [31] was greater than 100 µM, the TGI [32] was greater than 100 µM and the TGI [33] was greater than 100 µM. The TGI [34] was greater than 100 µM, the TGI [35] was greater than 100 µM and the TGI [36] was greater than 100 µM. It also gave a TGI [37] greater than 100 µM, a TGI [38] greater than 100 µM and a TGI [39] greater than 100 µM. It also gave a TGI [40] greater than 100 µM, a TGI [41] greater than 100 µM and a TGI [42] greater than 100 µM. It also gave a TGI [43] greater than 100 µM, a TGI [44] greater than 100 µM and a TGI [45] greater than 100 µM. The TGI [46] was greater than 100 µM, the TGI [47] was greater than 100 µM and the TGI [48] was greater than 100 µM. The TGI [49] was greater than 100 µM, the TGI [50] was greater than 100 µM and the TGI [51] was greater than 100 µM. The TGI [52] was greater than 100 µM and the TGI [53] was greater than 100 µM.
Work on `COC(=O)Cc1c(C2=Nc3ccccc3C2(O)CC(=O)OC)[nH]c2ccccc12` (stereo not drawn) yielded a TGI [1] greater than 100 µM, a TGI [54] greater than 100 µM and a TGI [2] greater than 100 µM. For the same compound, the TGI [3] was greater than 100 µM, the TGI [4] was greater than 100 µM and the TGI [5] was 71 µM. The TGI [6] was 54.5 µM, the TGI [7] was 52.3 µM and the TGI [8] was greater than 100 µM. The TGI [9] was greater than 100 µM, the TGI [11] was greater than 100 µM and the TGI [12] was greater than 100 µM. For the same compound, the TGI [13] was 62.7 µM, the TGI [14] was greater than 100 µM and the TGI [55] was greater than 100 µM. It also gave a TGI [15] greater than 100 µM, a TGI [16] greater than 100 µM and a TGI [17] greater than 100 µM. It also gave a TGI [18] greater than 100 µM, a TGI [19] greater than 100 µM and a TGI [20] greater than 100 µM. The TGI [21] was greater than 100 µM, the TGI [22] was greater than 100 µM and the TGI [24] was greater than 100 µM. It also gave a TGI [56] greater than 100 µM, a TGI [25] greater than 100 µM and a TGI [26] of 71.2 µM. It also gave a TGI [27] greater than 100 µM, a TGI [28] greater than 100 µM and a TGI [29] greater than 100 µM. For the same compound, the TGI [30] was greater than 100 µM, the TGI [31] was greater than 100 µM and the TGI [57] was greater than 100 µM. It also gave a TGI [33] greater than 100 µM, a TGI [34] greater than 100 µM and a TGI [35] greater than 100 µM. For the same compound, the TGI [58] was greater than 100 µM, the TGI [59] was greater than 100 µM and the TGI [36] was greater than 100 µM. For the same compound, the TGI [37] was greater than 100 µM, the TGI [38] was 85.5 µM and the TGI [39] was greater than 100 µM. It also gave a TGI [40] greater than 100 µM, a TGI [41] greater than 100 µM and a TGI [42] greater than 100 µM. The TGI [43] was greater than 100 µM, the TGI [44] was greater than 100 µM and the TGI [45] was greater than 100 µM. It also gave a TGI [47] greater than 100 µM, a TGI [48] greater than 100 µM and a TGI [49] greater than 100 µM. The TGI [50] was greater than 100 µM, the TGI [51] was greater than 100 µM and the TGI [52] was greater than 100 µM. The TGI [53] was greater than 100 µM.
With `CC(=O)Oc1ccc2cc(Oc3ccc(Cl)cc3)c(=O)oc2c1` the TGI [1] was greater than 100 µM, the TGI [54] was greater than 100 µM and the TGI [2] was 94 µM. For the same compound, the TGI [3] was greater than 100 µM, the TGI [4] was 83.8 µM and the TGI [5] was greater than 100 µM. For the same compound, the TGI [8] was greater than 100 µM, the TGI [9] was greater than 100 µM and the TGI [10] was greater than 100 µM. For the same compound, the TGI [11] was greater than 100 µM, the TGI [12] was greater than 100 µM and the TGI [13] was greater than 100 µM. It also gave a TGI [14] greater than 100 µM, a TGI [55] greater than 100 µM and a TGI [15] greater than 100 µM. The TGI [16] was greater than 100 µM, the TGI [17] was greater than 100 µM and the TGI [19] was greater than 100 µM. The TGI [20] was greater than 100 µM, the TGI [21] was greater than 100 µM and the TGI [22] was greater than 100 µM. The TGI [23] was greater than 100 µM, the TGI [24] was greater than 100 µM and the TGI [25] was 78.8 µM. It also gave a TGI [27] greater than 100 µM, a TGI [28] greater than 100 µM and a TGI [29] greater than 100 µM. The TGI [30] was 89.6 µM, the TGI [57] was 57.8 µM and the TGI [32] was greater than 100 µM. It also gave a TGI [33] greater than 100 µM, a TGI [34] of 54 µM and a TGI [35] of 78.7 µM. The TGI [58] was greater than 100 µM, the TGI [59] was greater than 100 µM and the TGI [36] was greater than 100 µM. It also gave a TGI [37] of 99 µM, a TGI [38] of 82.7 µM and a TGI [40] greater than 100 µM. For the same compound, the TGI [41] was 41.9 µM, the TGI [43] was greater than 100 µM and the TGI [44] was greater than 100 µM. It also gave a TGI [45] greater than 100 µM, a TGI [46] greater than 100 µM and a TGI [47] greater than 100 µM. The TGI [48] was greater than 100 µM, the TGI [49] was greater than 100 µM and the TGI [50] was greater than 100 µM. It also gave a TGI [51] of 78.7 µM and a TGI [53] greater than 100 µM.
With `CN(C)c1ccc(C(=NNC(=O)c2cc3ccccc3[nH]2)c2ccc(N(C)C)cc2)cc1` the TGI [1] was 19.8 µM, the TGI [54] was 26.3 µM and the TGI [2] was greater than 100 µM. For the same compound, the TGI [3] was 24.9 µM, the TGI [4] was greater than 44.8 µM and the TGI [5] was 45.7 µM. The TGI [6] was greater than 25.2 µM, the TGI [7] was greater than 20.7 µM and the TGI [8] was greater than 100 µM. The TGI [9] was greater than 100 µM, the TGI [10] was 1.48 µM and the TGI [11] was greater than 34.2 µM. For the same compound, the TGI [12] was greater than 100 µM, the TGI [13] was 0.678 µM and the TGI [14] was 33.7 µM. For the same compound, the TGI [55] was 31.8 µM, the TGI [15] was 3.74 µM and the TGI [16] was 9.93 µM. The TGI [17] was 25.9 µM, the TGI [18] was greater than 100 µM and the TGI [19] was greater than 100 µM. It also gave a TGI [20] greater than 100 µM, a TGI [21] of 29 µM and a TGI [23] greater than 51 µM. For the same compound, the TGI [24] was 12.9 µM, the TGI [56] was 0.371 µM and the TGI [25] was 1.49 µM. It also gave a TGI [26] greater than 100 µM, a TGI [27] greater than 100 µM and a TGI [28] greater than 32.9 µM. It also gave a TGI [29] greater than 100 µM, a TGI [30] of 2.53 µM and a TGI [57] of 1.81 µM. The TGI [32] was greater than 100 µM, the TGI [33] was greater than 45.5 µM and the TGI [34] was greater than 100 µM. For the same compound, the TGI [35] was greater than 66.8 µM, the TGI [59] was 15 µM and the TGI [36] was 5.31 µM. It also gave a TGI [37] of 5.52 µM, a TGI [38] of 8.04 µM and a TGI [39] of 3.97 µM. It also gave a TGI [41] greater than 100 µM, a TGI [42] greater than 87.7 µM and a TGI [43] greater than 93.9 µM. The TGI [44] was greater than 44.5 µM, the TGI [45] was 16.9 µM and the TGI [46] was greater than 100 µM. The TGI [47] was greater than 100 µM, the TGI [48] was greater than 100 µM and the TGI [49] was 30.1 µM. For the same compound, the TGI [50] was 14.5 µM, the TGI [51] was greater than 100 µM and the TGI [52] was greater than 54 µM. The TGI [53] was greater than 59.3 µM.
